Source: the NIST ThermoML archive (doi:10.1021/acs.jced.9b00536)

Assay: refractive index (Na D-line) (dimensionless); wn = mass fraction of the nth substance listed
Details: 100 kPa, Liquid, Standard Abbe refractometry

[Na+].[OH-] [sodium hydroxide] + O
refractive index
Details | 293.15 K | 298.15 K | 303.15 K | 308.15 K
w1 = 0.2 | – | 1.3829 | 1.382 | 1.3811
w1 = 0.21 | – | 1.3849 | 1.384 | 1.3832
w1 = 0.22 | – | 1.3878 | 1.3869 | 1.386
w1 = 0.23 | – | 1.3893 | 1.3882 | 1.3874
w1 = 0.24 | – | 1.3914 | 1.3905 | 1.3896
w1 = 0.25 | – | 1.3943 | 1.3934 | 1.3925
w1 = 0.26 | – | 1.3965 | 1.3956 | 1.3947
w1 = 0.27 | – | 1.3982 | 1.3973 | 1.3964
w1 = 0.28 | – | 1.4002 | 1.3993 | 1.3983
w1 = 0.29 | – | 1.4026 | 1.4017 | 1.4008
w1 = 0.3 | – | 1.4038 | 1.4029 | 1.402
w1 = 0.31 | – | 1.4059 | 1.405 | 1.4041
w1 = 0.32 | – | 1.4073 | 1.4063 | 1.4055
w1 = 0.33 | – | 1.4088 | 1.4079 | 1.407
w1 = 0.34 | – | 1.4114 | 1.4105 | 1.4096
w1 = 0.35 | – | 1.4133 | 1.4123 | –
w1 = 0.36 | – | 1.4148 | 1.4139 | –
w1 = 0.37 | – | 1.4163 | 1.4154 | –
w1 = 0.38 | – | 1.4182 | 1.4173 | –
w1 = 0.39 | – | 1.4199 | 1.4189 | –
w1 = 0.4 | – | 1.4214 | 1.4205 | –
w1 = 0.41 | – | 1.4225 | 1.4215 | –
w1 = 0.42 | – | 1.4241 | 1.4231 | –
w1 = 0.43 | 1.4263 | 1.4254 | 1.4245 | –
w1 = 0.44 | 1.4274 | 1.4265 | 1.4255 | –
w1 = 0.45 | 1.4286 | 1.4276 | 1.4267 | –
w1 = 0.46 | 1.4303 | 1.4293 | 1.4284 | –
w1 = 0.47 | 1.4314 | 1.4304 | 1.4294 | –
w1 = 0.48 | 1.4329 | 1.432 | 1.4311 | –
w1 = 0.49 | 1.4338 | 1.4328 | 1.4318 | –
w1 = 0.5 | 1.4346 | 1.4337 | 1.4328 | –
